# Measured values: ChEMBL document CHEMBL5584286, “Structure Determination of 1,3-Dioxolane-Containing Lipids from the Marine Sponge Leucetta sp. Using Chiral 1H NMR Analysis of Model Systems” (2024)
# Calls of active or inactive are those of the source. The rule behind the calls is not given here.
# How the values were obtained:
# [1] = test system: RAW264.7; test: Antiinflammatory activity in mouse RAW264.7 cells; type: functional, cell-based
# [2] = test system: Micrococcus luteus; test: Antibacterial activity against Micrococcus luteus KCTC 1915; type: functional
# [3] = test system: Klebsiella pneumoniae; test: Antibacterial activity against Klebsiella pneumoniae KCTC 2690; type: functional
# [4] = test system: Salmonella typhimurium; test: Antibacterial activity against Salmonella typhimurium KCTC 2515; type: functional, Salmonella enterica subsp. enterica serovar Typhimurium; settings: Salmonella enterica
# [5] = test system: Bacillus subtilis; test: Antibacterial activity against Bacillus subtilis KCTC 1021; type: functional
# [6] = test system: Escherichia coli; test: Antibacterial activity against Escherichia coli KCTC 2441; type: functional
# [7] = test system: Staphylococcus aureus; test: Antibacterial activity against Staphylococcus aureus KCTC 1927; type: functional
Compound,Activity [1],MIC [2] [µg/mL],MIC [3] [µg/mL],MIC [4] [µg/mL],MIC [5] [µg/mL],MIC [6] [µg/mL],MIC [7] [µg/mL]
CCCCCCCCCCC/C=C\C=C\C(O)CC[C@H](C)[C@H]1OC[C@H](CO)O1 (stereo not given in full),inactive,> 128,> 128,> 128,> 128,> 128,> 128
CCCCCCCCC/C=C\C/C=C\CCC[C@H](C)[C@H]1OC[C@H](CO)O1,inactive,> 128,> 128,> 128,> 128,> 128,> 128
CCCCCCCC/C=C\C/C=C\CCC[C@H](C)[C@H]1OC[C@H](CO)O1,inactive,> 128,> 128,> 128,> 128,> 128,> 128
CCCCCCCCCCC/C=C\CCC[C@H](C)[C@H]1OC[C@H](CO)O1,inactive,> 128,> 128,> 128,> 128,> 128,> 128
CCCCCCCCCC/C=C\C/C=C\CCC[C@H](C)[C@H]1OC[C@H](CO)O1,inactive,> 128,> 128,> 128,> 128,> 128,> 128
